Measurements published in patent US10870624B2, “Histone deacetylase inhibitors” (Karus Therapeutics Limited, priority 2013, dated 2020).

Assays:
[1] = target: T1, Human HDAC1 (Homo sapiens, UniProt Q13547); experiment: Biochemical HDAC assay with acetylated AMC-labeled peptide substrate, HDAC1; details: HDAC1, 2 hours at 30° C.; read-out: IC50 (nM) HDAC 1
T1 construct: full length with C-terminal His-tag and C-terminal FLAG-tag; His-tag (C); FLAG-tag (C); made in house; host or cells: baculovirus expression system (insect cells)
T1 sequence (Q13547 whole entry): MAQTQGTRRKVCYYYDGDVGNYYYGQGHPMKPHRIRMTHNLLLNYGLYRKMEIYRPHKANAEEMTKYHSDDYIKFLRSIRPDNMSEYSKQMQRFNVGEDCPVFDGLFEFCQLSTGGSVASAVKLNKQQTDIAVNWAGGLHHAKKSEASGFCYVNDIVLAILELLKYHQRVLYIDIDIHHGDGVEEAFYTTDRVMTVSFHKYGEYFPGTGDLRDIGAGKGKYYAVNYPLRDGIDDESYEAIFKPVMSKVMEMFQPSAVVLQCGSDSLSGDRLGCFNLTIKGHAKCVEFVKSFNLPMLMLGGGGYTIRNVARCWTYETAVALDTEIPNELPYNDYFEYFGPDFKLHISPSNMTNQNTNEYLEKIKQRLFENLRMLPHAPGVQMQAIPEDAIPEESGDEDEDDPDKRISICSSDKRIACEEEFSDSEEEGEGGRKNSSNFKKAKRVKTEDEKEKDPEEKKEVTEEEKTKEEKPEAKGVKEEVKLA
Method: (§1) Activity against all zinc-dependent HDACs 1 to 11 was assessed by using an acetylated AMC-labeled peptide substrate. The substrate RHKKAc was used for all class I and IIb HDACs; for […], the substrate used was RHKAcKAc. […] All assays were based on the AMC-labeled substrate and developer combination.
(§2) The protocol involved a two-step reaction: first, the substrate with the acetylated lysine side chain is incubated with a sample containing HDAC activity, to produce the deacetylated products, which are then digested in the second step by the addition of developer to produce the fluorescent signal proportional to the amount of deacetylated substrates.
Human HDAC1 (GenBank Accession No. NM_004964), full length with C-terminal His-tag and C-terminal FLAG-tag, MW=56 kDa, expressed in baculovirus expression system.
(§3) Before use, 1 mg/mL BSA and DMSO are added.
(§4) Incubate for 2 hours at 30° C.
(§5) Stage 1: Deacetylation of substrate by incubation of HDAC enzymes with compounds
(§6) Stage 2: Development by addition of Developer to digest the deacetylated substrate, and generate the fluorescent color; Detection: 360/460 Ex/Em

[2] = target: T2, Recombinant human HDAC6 (Homo sapiens, UniProt Q9UBN7); experiment: Biochemical HDAC assay with acetylated AMC-labeled peptide substrate, HDAC6; details: HDAC6, 2 hours at 30° C.; read-out: IC50 (nM) HDAC 6
T2 construct: full length, MW=180 kDa, was expressed by baculovirus in Sf9 insect cells; GST (N); made in house; host or cells: Sf9 insect cells (baculovirus)
T2 sequence (Q9UBN7 1-1215): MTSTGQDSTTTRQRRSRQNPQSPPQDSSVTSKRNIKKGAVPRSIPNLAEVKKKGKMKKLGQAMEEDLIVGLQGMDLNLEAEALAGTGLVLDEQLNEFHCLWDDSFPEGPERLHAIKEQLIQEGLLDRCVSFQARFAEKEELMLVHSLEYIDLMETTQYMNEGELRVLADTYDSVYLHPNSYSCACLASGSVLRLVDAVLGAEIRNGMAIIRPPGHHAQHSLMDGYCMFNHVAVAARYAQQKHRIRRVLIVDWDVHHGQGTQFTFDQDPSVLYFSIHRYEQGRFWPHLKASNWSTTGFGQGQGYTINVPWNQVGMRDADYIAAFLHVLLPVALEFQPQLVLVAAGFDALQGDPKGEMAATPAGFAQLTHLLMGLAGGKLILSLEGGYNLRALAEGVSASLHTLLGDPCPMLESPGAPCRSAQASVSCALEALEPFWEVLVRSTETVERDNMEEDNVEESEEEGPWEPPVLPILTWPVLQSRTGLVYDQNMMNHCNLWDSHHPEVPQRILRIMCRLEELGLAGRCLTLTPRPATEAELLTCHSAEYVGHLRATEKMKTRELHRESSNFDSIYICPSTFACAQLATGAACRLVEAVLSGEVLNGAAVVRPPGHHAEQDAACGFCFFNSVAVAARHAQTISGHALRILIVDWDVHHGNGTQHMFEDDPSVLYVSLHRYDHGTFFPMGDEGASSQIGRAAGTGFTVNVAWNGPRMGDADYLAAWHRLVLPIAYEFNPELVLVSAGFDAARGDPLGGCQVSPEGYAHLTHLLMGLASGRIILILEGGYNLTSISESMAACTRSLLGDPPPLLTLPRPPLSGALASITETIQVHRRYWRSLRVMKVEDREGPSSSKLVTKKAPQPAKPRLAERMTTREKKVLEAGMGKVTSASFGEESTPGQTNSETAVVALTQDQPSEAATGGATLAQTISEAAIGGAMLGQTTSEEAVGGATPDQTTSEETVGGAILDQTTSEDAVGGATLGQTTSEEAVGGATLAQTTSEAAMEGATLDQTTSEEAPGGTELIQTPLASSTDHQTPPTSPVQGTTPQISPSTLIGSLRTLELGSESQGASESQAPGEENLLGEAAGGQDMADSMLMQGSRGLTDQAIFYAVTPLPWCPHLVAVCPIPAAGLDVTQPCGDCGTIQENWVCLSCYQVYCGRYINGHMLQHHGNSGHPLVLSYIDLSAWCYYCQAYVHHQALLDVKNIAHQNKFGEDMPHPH
Method: as §1, §2
Recombinant human HDAC6 (GenBank Accession No. BC069243), full length, MW=180 kDa, was expressed by baculovirus in Sf9 insect cells using an N-terminal GST tag.
as §3, §4, §5, §6

| IC50 [1] [nM] | IC50 [2] [nM] | SMILES |
| --- | --- | --- |
| 1000 to 10000 | ≤ 500 | Cn1ccc(N(Cc2ccc(C(=O)NO)cc2)c2ccccn2)n1 [Example E, N-Hydroxy-4-(((1-methyl-1H-pyrazol-3-yl)(pyridin-2-yl)amino)methyl)benzamide] |
| > 10000 | ≤ 500 | O=C(NO)c1ccc(CN(c2ccccn2)c2nncs2)cc1 [Example F, N-Hydroxy-4-((pyridin-2-yl(1,3,4-thiadiazol-2-yl)amino)methyl)benzamide] |
| > 10000 | ≤ 500 | O=C(NO)c1ccc(CN(c2ccccn2)c2cnccn2)cc1 [Example G, N-Hydroxy-4-((pyrazin-2-yl(pyridin-2-yl)amino)methyl)benzamide] |
| 1000 to 10000 | ≤ 500 | Cc1noc(N(Cc2ccc(C(=O)NO)c(F)c2)c2nc(C)ns2)n1 [Example C, 2-Fluoro-N-hydroxy-4-{[(3-methyl-1,2,4-oxadiazol-5-yl)(3-methyl-1,2,4-thiadiazol-5-yl)amino]methyl}benzamide] |
| > 10000 | ≤ 500 | O=C(NO)c1ccc(CN(c2ccccn2)c2ccccn2)cc1 [Example A, 4-{[Bis(pyridin-2-yl)amino]methyl}-N-hydroxybenzamide] |
| 1000 to 10000 | ≤ 500 | Cc1noc(N(Cc2ccc(C(=O)NO)cc2)c2ccccn2)n1 [Example D, N-Hydroxy-4-(((3-methyl-1,2,4-oxadiazol-5-yl)(pyridin-2-yl)amino)methyl)benzamide] |
| > 10000 | ≤ 500 | Cc1nsc(N(Cc2ccc(C(=O)NO)c(F)c2)c2nc(C)ns2)n1 [Example B, 4-{[Bis(3-methyl-1,2,4-thiadiazol-5-yl)amino]methyl}-2-fluoro-N-hydroxybenzamide] |
